Test results taken from ChEMBL document CHEMBL1201862, “PubChem BioAssay data set” (2004).
The source made the active and inactive calls.

What was measured:
[1] = molecular target: T1, Sentrin-specific protease 1 (Homo sapiens, UniProt Q9P0U3); test: potency of human SENP1 inhibitors, dose response, biochemical, kinetic FRET (AID 651697); assay type: functional; conditions: read-out: IC50_Mean
T1 sequence (Q9P0U3 whole entry): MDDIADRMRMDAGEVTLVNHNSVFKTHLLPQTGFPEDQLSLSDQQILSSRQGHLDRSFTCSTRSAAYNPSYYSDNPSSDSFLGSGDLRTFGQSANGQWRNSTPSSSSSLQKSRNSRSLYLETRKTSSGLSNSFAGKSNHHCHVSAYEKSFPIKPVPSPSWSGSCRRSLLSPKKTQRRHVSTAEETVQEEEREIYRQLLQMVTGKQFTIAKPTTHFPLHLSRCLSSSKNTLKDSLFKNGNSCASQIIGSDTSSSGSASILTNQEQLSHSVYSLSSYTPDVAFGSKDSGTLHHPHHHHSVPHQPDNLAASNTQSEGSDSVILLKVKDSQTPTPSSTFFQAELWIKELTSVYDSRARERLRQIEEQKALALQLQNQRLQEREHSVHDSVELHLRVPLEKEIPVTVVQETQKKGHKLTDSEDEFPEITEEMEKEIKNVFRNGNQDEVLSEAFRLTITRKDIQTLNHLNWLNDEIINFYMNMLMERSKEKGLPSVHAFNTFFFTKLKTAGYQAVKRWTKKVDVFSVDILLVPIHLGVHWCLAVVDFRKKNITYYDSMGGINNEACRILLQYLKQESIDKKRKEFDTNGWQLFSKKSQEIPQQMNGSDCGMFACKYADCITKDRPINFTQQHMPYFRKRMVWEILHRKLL

[2] = molecular target: T1, Sentrin-specific protease 1; test: Dose response confirmation of small molecule inhibitors of the catalytic domain of the SUMO protease, SENP1 in a FRET assay.; assay type: functional; conditions: read-out: IC50_Mean
[3] = molecular target: G-protein coupled receptor 55 (Homo sapiens, UniProt Q9Y2T6); test: GPR55 antagonists blocking LPI-driven arrestin recruitment, primary screen, imaging, U2OS, beta-arrestin-GFP, LPI agonist (AID 2013); assay type: functional;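 also: antagonist potency measured as reduced agonist-driven arrestin aggregation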
Chain of G-protein coupled receptor 55 (Q9Y2T6 whole entry, the tested form may be a part): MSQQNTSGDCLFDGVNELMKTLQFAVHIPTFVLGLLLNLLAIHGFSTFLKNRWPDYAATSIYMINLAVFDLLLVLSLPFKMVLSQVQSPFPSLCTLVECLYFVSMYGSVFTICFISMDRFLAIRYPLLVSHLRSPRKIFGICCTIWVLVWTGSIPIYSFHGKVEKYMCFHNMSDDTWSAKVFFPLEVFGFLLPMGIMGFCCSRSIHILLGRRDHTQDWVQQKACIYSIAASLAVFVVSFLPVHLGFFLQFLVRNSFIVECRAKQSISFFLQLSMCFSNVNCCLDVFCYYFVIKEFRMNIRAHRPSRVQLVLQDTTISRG

Fatty acid synthase [4] = molecular target: T2, Fatty acid synthase (Homo sapiens, UniProt P49327); test: FAS thioesterase domain inhibitors, dose response, biochemical, endpoint fluorescence intensity, uHTS hits (AID 624327); assay type: functional;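 also: fluorescence from hydrolysis of an O-methyl fluorescein acyl ester substrate by the enzyme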
T2 sequence (P49327 whole entry, the tested form may be a part): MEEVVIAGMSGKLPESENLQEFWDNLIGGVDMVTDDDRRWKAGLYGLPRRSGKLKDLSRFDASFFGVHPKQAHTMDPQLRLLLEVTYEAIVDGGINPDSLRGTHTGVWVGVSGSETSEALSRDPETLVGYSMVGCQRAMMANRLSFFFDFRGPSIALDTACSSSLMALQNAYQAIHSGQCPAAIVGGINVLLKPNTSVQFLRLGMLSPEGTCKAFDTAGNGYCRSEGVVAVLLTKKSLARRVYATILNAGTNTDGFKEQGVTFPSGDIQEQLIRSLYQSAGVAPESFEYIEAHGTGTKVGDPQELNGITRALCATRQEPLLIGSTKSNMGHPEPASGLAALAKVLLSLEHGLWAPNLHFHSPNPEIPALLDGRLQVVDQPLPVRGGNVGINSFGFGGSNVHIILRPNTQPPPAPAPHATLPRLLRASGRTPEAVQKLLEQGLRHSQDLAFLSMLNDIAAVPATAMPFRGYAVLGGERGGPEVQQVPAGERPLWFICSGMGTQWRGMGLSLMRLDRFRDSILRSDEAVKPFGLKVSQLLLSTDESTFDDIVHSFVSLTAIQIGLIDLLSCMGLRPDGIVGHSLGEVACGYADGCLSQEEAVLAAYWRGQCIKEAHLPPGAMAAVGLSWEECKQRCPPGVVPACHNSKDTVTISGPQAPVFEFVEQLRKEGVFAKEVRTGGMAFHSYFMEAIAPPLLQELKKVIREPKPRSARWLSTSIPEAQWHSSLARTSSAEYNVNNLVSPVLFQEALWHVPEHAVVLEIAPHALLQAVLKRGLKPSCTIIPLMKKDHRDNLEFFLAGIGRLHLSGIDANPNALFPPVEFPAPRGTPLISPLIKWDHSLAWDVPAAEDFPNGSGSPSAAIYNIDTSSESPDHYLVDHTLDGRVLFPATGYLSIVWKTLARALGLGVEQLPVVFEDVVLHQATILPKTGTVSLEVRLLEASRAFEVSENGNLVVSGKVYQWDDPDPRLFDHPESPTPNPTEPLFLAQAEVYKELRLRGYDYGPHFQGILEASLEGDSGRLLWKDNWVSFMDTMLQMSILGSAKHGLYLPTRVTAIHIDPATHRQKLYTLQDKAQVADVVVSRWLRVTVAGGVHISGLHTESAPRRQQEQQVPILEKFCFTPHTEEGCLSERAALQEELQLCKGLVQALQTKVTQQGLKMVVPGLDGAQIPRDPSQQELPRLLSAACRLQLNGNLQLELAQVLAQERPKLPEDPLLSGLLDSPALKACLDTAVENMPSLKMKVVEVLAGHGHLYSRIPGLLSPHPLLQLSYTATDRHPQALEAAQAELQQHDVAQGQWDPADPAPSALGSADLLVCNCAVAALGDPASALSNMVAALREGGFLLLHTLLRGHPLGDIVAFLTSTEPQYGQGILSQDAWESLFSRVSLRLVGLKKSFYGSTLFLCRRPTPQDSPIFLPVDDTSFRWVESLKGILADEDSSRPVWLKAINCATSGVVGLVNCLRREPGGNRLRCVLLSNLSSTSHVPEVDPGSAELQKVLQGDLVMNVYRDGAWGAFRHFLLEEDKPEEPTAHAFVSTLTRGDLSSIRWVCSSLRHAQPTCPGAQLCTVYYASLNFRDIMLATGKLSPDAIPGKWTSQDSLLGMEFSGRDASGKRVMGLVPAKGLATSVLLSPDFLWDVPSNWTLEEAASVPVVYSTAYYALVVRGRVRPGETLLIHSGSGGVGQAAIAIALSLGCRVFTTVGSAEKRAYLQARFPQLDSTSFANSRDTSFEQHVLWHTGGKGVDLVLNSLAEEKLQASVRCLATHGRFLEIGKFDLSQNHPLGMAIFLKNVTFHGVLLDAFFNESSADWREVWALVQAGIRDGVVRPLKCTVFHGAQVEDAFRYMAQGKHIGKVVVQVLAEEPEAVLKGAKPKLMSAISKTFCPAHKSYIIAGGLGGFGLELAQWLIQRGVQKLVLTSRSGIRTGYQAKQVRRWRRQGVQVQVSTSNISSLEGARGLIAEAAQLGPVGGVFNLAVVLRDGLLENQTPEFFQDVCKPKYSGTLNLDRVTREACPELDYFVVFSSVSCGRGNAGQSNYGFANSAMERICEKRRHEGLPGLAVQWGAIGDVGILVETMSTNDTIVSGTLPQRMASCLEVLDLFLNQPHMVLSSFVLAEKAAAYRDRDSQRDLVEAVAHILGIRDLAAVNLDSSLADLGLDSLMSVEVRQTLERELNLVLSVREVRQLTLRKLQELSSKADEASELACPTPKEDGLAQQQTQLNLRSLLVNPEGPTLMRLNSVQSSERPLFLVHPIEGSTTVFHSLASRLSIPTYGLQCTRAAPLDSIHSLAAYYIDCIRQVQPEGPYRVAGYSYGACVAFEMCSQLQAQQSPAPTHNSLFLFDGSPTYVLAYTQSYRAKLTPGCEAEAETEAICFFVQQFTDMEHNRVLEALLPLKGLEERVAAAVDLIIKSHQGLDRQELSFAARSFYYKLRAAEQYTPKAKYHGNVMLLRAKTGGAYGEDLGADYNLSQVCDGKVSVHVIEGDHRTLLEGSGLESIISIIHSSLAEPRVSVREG

[5] = CRF-BP/CRF-R2 complex antagonists, dose response, cell-based, uHTS hits, 384-well (AID 651639); assay type: functional, Homo sapiens; conditions: read-out: IC50_Mean
Fatty acid synthase [6] = molecular target: T2, Fatty acid synthase; test: FAS thioesterase domain inhibitors, dose response, biochemical, kinetic fluorescence intensity (AID 624326); assay type: functional;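 also: rate of fluorescence rise from hydrolysis of a fluorogenic O-methyl fluorescein ester substrate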
[7] = molecular target: T3, Corticotropin-releasing factor receptor 2/Corticotropin-releasing factor-binding protein (Homo sapiens, UniProt P24387+Q13324); test: Dose Response confirmation of uHTS hits for small molecule antagonists of the CRF-binding protein and CRF-R2 receptor complex.; assay type: functional; conditions: read-out: IC50_Mean
T3 sequence (Q13324 whole entry): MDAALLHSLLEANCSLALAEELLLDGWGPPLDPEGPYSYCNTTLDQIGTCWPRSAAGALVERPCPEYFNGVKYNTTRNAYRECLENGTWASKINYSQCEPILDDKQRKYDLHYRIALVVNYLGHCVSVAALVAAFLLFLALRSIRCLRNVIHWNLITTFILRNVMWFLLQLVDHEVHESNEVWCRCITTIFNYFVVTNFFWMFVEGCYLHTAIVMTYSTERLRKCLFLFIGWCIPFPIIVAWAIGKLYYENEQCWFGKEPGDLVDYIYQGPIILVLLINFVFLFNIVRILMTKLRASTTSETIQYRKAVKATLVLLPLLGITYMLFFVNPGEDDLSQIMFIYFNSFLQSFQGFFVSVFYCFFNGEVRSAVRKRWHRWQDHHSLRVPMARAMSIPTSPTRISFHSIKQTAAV
T3 sequence (P24387 whole entry): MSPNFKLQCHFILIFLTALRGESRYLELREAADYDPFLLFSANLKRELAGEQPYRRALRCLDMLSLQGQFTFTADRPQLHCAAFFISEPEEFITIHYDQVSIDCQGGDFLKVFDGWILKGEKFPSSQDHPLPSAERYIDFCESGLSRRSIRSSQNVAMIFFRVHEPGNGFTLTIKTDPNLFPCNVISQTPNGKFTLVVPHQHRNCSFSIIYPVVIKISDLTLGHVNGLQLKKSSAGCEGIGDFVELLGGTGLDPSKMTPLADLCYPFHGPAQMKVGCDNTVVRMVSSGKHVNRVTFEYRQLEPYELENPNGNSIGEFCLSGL

[8] = molecular target: T3, Corticotropin-releasing factor receptor 2/Corticotropin-releasing factor-binding protein; test: activators of CRF receptor 2 with binding protein – uHTS hits, confirmation (AID 602473); assay type: functional; conditions: read-out: EC50_Mean
[9] = molecular target: Glucose-6-phosphate 1-dehydrogenase (Homo sapiens, UniProt P11413); test: human G6PD enzyme inhibitors, dose response, selectivity assay for P. falciparum G6PD inhibitor project, biochemical, fluorescence (AID 504792); assay type: functional
Chain of Glucose-6-phosphate 1-dehydrogenase (P11413 whole entry): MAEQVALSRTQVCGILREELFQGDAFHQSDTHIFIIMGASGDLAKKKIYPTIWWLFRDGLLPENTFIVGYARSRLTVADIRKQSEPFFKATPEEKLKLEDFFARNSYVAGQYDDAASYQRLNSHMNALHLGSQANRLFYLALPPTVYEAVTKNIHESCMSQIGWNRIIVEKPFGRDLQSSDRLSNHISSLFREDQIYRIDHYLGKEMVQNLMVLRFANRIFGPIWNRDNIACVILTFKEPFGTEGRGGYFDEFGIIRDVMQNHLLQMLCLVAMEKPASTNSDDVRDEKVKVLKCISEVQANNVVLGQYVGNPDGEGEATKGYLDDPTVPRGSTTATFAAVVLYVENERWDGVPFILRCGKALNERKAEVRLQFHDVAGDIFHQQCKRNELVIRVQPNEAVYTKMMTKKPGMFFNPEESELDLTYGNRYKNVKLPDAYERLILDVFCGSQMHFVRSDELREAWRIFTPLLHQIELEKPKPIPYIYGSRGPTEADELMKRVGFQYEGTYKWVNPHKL

[10] = molecular target: T4, Heat shock factor protein 1 (Mus musculus, UniProt P38532); test: inhibition of MG132-induced HSE-luciferase signal, confirmation, cell-based, NIH3T3, luminescence, dose retest (AID 2382); assay type: functional;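 also: NIH3T3 fibroblasts with HSF1-driven luciferase reporter stressed by proteasome inhibitor MG132; luminescence from HSF1-driven luciferase expression after 8 hours of MG132 stress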
T4 sequence (P38532 whole entry): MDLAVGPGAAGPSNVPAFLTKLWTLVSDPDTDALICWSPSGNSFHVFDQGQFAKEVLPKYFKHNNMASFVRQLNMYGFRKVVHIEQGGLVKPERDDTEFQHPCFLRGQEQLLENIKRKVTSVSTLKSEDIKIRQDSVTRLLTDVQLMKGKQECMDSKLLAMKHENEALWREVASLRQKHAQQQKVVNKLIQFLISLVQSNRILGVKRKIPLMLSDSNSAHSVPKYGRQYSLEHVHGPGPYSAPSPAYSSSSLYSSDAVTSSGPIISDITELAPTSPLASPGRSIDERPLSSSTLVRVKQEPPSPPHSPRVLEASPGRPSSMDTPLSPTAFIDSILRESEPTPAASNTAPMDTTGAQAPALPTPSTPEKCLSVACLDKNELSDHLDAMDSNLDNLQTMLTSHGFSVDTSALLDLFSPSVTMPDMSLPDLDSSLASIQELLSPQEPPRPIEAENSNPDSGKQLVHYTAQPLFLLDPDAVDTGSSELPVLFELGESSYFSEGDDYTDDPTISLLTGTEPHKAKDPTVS

HEK293 = test: inhibitors of LMP1-driven NF-kB reporter, dose response, cell-based, HEK293, luciferase, cherry-pick (AID 588343); assay type: functional; conditions: Homo sapiens
[11] = molecular target: T5, RNA-binding protein pos-1 (Caenorhabditis elegans, UniProt G5EF15); test: inhibitors of POS-1/mex-3 RNA binding, dose response, biochemical, fluorescence polarization (AID 1964);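 also: purified POS-1 fused to maltose binding protein made in E. coli; potency of compounds blocking POS-1 binding to fluorescent RNA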
T5 sequence (G5EF15 whole entry): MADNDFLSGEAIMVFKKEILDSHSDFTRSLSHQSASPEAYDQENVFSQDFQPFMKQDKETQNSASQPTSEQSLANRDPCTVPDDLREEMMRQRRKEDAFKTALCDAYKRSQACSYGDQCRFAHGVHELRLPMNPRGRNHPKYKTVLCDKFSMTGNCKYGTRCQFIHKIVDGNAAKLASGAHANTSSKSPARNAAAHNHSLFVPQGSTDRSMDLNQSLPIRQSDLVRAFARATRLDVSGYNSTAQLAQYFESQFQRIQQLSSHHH

[12] = molecular target: T6, Zinc finger protein mex-5 (Caenorhabditis elegans, UniProt Q9XUB2); test: MEX-5/TCR-2 RNA interaction inhibitors, dose response, biochemical, C. elegans, fluorescence polarization (AID 1960)
T6 sequence (Q9XUB2 whole entry): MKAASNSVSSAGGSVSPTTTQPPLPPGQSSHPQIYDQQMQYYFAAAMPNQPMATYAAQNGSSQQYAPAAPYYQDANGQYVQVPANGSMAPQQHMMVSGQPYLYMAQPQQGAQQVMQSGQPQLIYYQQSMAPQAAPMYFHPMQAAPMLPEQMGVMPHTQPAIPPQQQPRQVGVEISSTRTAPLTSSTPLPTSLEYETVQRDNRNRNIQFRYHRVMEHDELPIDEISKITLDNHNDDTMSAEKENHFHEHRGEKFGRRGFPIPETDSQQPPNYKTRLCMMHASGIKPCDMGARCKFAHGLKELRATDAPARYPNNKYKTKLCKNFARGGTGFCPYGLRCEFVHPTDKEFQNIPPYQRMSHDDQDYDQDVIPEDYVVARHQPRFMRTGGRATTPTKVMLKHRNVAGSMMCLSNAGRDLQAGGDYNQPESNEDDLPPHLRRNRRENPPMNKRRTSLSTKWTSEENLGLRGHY

COc1ccc(NN=C2C(=O)NC(=S)NC2=O)cc1
IC50 [1]: 29.1 µM (inactive)
IC50 [2]: 16.6 µM (active)

O=C(O)c1ccc(Cl)c(NC(=S)NC(=O)c2cccc(COc3ccccc3)c2)c1
IC50 [3]: 2.3 µM (active)
IC50 (Fatty acid synthase [4]): 6.11 µM (active)
IC50 [5]: > 20 µM (inactive)
IC50 (Fatty acid synthase [6]): 4.47 µM (active)
IC50 [7]: < 0.368 µM (active)
EC50 [8]: > 53 µM (inactive)

CCCCOc1ccc(Cc2nnc(S)n2N)cc1
IC50 [9]: > 80 µM (inactive)

Cn1c(-c2sccc2OCc2cccc(C(F)(F)F)c2)n[nH]c1=S
IC50 [9]: > 80 µM (inactive)
EC50 [10]: > 195 µM (not active)

O=c1c2cnn(-c3ccccc3)c2nc(-c2cccs2)n1-c1ccc(Cl)cc1
AC50 (HEK293): 1.78 µM (active)

O=C(CN1C(=O)/C(=C\C=C\c2ccccc2)SC1=S)Nc1ccc(F)cc1
IC50 [1]: 7.54 µM (active)
EC50 [11]: > 300 µM (not active)
EC50 [12]: > 300 µM (not active)
IC50 [2]: 5.21 µM (active)
